Assay results taken from the NIST ThermoML archive (doi:10.1021/acs.jced.6b00365).

Conditions: dynamic light scattering

CCOC(C)(C)C [2-ethoxy-2-methylpropane]
Conditions | thermal diffusivity [m2/s]
293.13 K, Liquid | 5.67e-08
303.09 K, Liquid | 5.45e-08
313.21 K, Liquid | 5.16e-08
323.18 K, Liquid | 4.96e-08
333.18 K, Liquid | 4.79e-08
338.25 K, Liquid | 4.7e-08
343.17 K, Liquid | 4.64e-08
348.15 K, Liquid | 4.55e-08
353.08 K, Liquid | 4.49e-08
358.19 K, Liquid | 4.43e-08
363.1 K, Liquid | 4.38e-08
368.12 K, Liquid | 4.33e-08
373.11 K, Liquid | 4.3e-08
378.18 K, Liquid | 4.26e-08
383.14 K, Liquid | 4.2e-08
388.07 K, Liquid | 4.17e-08
393.06 K, Liquid | 4.15e-08
398.17 K, Liquid | 4.1e-08
403.22 K, Liquid | 4.08e-08
408.16 K, Liquid | 4.02e-08
413.1 K, Liquid | 4e-08
418.18 K, Liquid | 3.97e-08
423.09 K, Liquid | 3.95e-08
428.08 K, Liquid | 3.9e-08
433.07 K, Gas | 3.03e-07
433.18 K, Liquid | 3.85e-08
438.17 K, Liquid | 3.82e-08
443.06 K, Liquid | 3.77e-08
443.25 K, Gas | 2.57e-07
448.18 K, Liquid | 3.74e-08
453.13 K, Gas | 2.14e-07
453.18 K, Liquid | 3.68e-08
458.1 K, Liquid | 3.61e-08
463.05 K, Gas | 1.7e-07
463.19 K, Liquid | 3.53e-08
466.12 K, Liquid | 3.5e-08
468.16 K, Gas | 1.5e-07
469.18 K, Liquid | 3.45e-08
472.09 K, Liquid | 3.39e-08
473.25 K, Gas | 1.28e-07
475.06 K, Liquid | 3.33e-08
478.15 K, Liquid | 3.25e-08
478.2 K, Gas | 1.08e-07
481.24 K, Liquid | 3.16e-08
483.18 K, Gas | 8.76e-08
484.23 K, Liquid | 3.05e-08
487.17 K, Liquid | 2.95e-08
488.25 K, Gas | 6.52e-08
490.09 K, Liquid | 2.77e-08
493.14 K, Liquid | 2.63e-08
493.22 K, Gas | 3.68e-08
496.24 K, Liquid | 2.27e-08

Liquid
Conditions | thermal diffusivity [m2/s]
372.96 K, 4000 kPa | 4.4e-08
373.15 K, 7000 kPa | 4.47e-08
373.16 K, 10000 kPa | 4.5e-08
383.18 K, 10000 kPa | 4.45e-08
383.35 K, 7000 kPa | 4.41e-08
383.37 K, 4000 kPa | 4.34e-08
392.97 K, 7000 kPa | 4.35e-08
393 K, 4000 kPa | 4.27e-08
393.05 K, 10000 kPa | 4.4e-08
402.94 K, 4000 kPa | 4.2e-08
402.99 K, 7000 kPa | 4.28e-08
403.09 K, 10000 kPa | 4.35e-08
413.25 K, 10000 kPa | 4.3e-08
413.34 K, 7000 kPa | 4.21e-08
413.35 K, 4000 kPa | 4.12e-08
421.78 K, 4000 kPa | 4.07e-08
421.86 K, 7000 kPa | 4.16e-08
422.25 K, 10000 kPa | 4.24e-08
431.42 K, 4000 kPa | 4e-08
431.52 K, 7000 kPa | 4.1e-08
432.83 K, 10000 kPa | 4.18e-08
442.12 K, 4000 kPa | 3.92e-08
442.19 K, 7000 kPa | 4.04e-08
442.53 K, 10000 kPa | 4.13e-08
452.09 K, 4000 kPa | 3.85e-08
452.26 K, 7000 kPa | 3.98e-08
452.4 K, 10000 kPa | 4.08e-08
462.41 K, 4000 kPa | 3.75e-08
462.47 K, 7000 kPa | 3.92e-08
462.95 K, 10000 kPa | 4.03e-08
472.45 K, 4000 kPa | 3.65e-08
472.63 K, 7000 kPa | 3.87e-08
472.63 K, 10000 kPa | 3.99e-08
478.13 K, 10000 kPa | 3.97e-08
478.14 K, 7000 kPa | 3.84e-08
478.2 K, 4000 kPa | 3.6e-08
482.44 K, 4000 kPa | 3.52e-08
483.15 K, 7000 kPa | 3.82e-08
483.2 K, 10000 kPa | 3.95e-08
488.15 K, 7000 kPa | 3.79e-08
488.65 K, 4000 kPa | 3.44e-08
488.83 K, 10000 kPa | 3.93e-08
493.13 K, 4000 kPa | 3.34e-08
493.16 K, 7000 kPa | 3.77e-08
493.3 K, 10000 kPa | 3.92e-08

Cc1ccccc1 [toluene]
Liquid
Conditions | thermal diffusivity [m2/s]
302.9 K | 8.63e-08
312.45 K | 8.33e-08
323.07 K | 8.03e-08
333.27 K | 7.77e-08
343.52 K | 7.52e-08
353.73 K | 7.3e-08
363.73 K | 7.09e-08
373.04 K | 6.9e-08
382.94 K | 6.71e-08
392.88 K | 6.52e-08
402.93 K | 6.33e-08
413.06 K | 6.15e-08
422.73 K | 5.98e-08
432.67 K | 5.81e-08
442.68 K | 5.64e-08
452.96 K | 5.48e-08
462.99 K | 5.33e-08
473.2 K | 5.19e-08
482.98 K | 5.06e-08
493.05 K | 4.94e-08
503.17 K | 4.84e-08
513.41 K | 4.74e-08
523.38 K | 4.66e-08
